From patent US10844102B2, “Peptides, compositions, and methods for stimulating subcutaneous adipogenesis” (The Regents of the University of California, priority 2014, dated 2020) come the findings set out here.

“Also recorded” adds a separate entry of the source.

Experiment [1] concerns rat mesenchymal stem cells. Kind of experiment: Assay 2: adipogenesis, Oil Red O staining (differentiation of pre-adipocytes into adipocytes). To be noted: for adipogenic activity in Assay 2: Assay 2, Oil Red O, concentration not given; for adipogenesis quantified by Oil Red O staining, fold change relative to the negative control: three weeks. It is filed as cell-based. How it is done:
Reagents: The Dexamethasone, IBMX, Insulin, and Oil Red O Solutions were the same as described above for assay 1. Indomethacin Solution contained 10 mM indomethacin in methanol.
Adipogenesis Maintenance Media was prepared as described above.
Adipogenesis Induction Media: To prepare 501.5 mL of Adipogenesis Induction Media, 50 μL of the 10 mM stock Dexamethasone Solution, 500 μL of the 0.5 M IBMX stock solution, 500 μL of the 10 mg/ml stock Insulin Solution, 5 ml of a 10 mM stock Indomethacin Solution, and 5 mL of a 100× stock solution of penicillin and streptomycin were added to 490 mL of mesenchymal stem cell expansion media.
Pre-adipocyte stem cells, bone marrow mesenchymal stem cells or fibroblasts such as dermal reticular and papillary fibroblasts were propagated using standard tissue culture methods. Cells were trypsinized to remove cells from the substratum, the trypsin was neutralized, and cells were counted using a hemocytometer. Cells were resuspended at 20,000 cells/ml in DMEM containing 10% calf serum. 1 mL of cell suspension per well was plated in a 48-well plate, with several wells left empty for blank well (blank control) staining.
Cells were incubated for 2 days overnight and had reached confluency at this point. Media was removed from each well and replaced with 0.5 ml Adipogenesis Induction Media. For negative control (no insulin, no peptide) wells, expansion medium only was used at this step and for subsequent media changes. For all media changes, media was replaced as gently as possible to avoid disturbing the monolayer.
Cells were incubated for 72 hours at 37° C., 5% CO2. Media was removed and replaced with 0.5 ml of Adipogenesis Maintenance Media containing either RHAMM antagonist peptides (experimental group) or insulin (concentration as in the Adipogenesis Induction Media and used as a positive control). Cells were incubated for at least 96 hours in this media at 37° C., 5% CO2. Media was replaced every 48 hours and experiments were terminated between seven and fourteen days after addition of insulin or peptides.
Media was removed and Oil Red O staining was performed as described above for assay 1.
Assay 1 is an assay that promotes transdifferentiation of fibroblasts into adipocytes, whereas Assay 2 promotes differentiation of multi-potential mesenchymal progenitor cells into adipocytes. Immortalized rat bone marrow mesenchymal stem cells were used for both assays. These cells contain cells of different lineages, including fibroblasts, pre-adipocytes, pre-chondrocytes and pre-osteoblasts. Thus, Assay 1 was used to promote transdifferentiation of fibroblast lineages into adipocytes and Assay 2 was used to promote differentiation of the pre-adipocytes into adipocytes.
As described in Example 1 above, the priming stimulus for Assay 1 includes IBMX (3-isobutyl-1-methylxanthine) and dexamethasone, and then insulin as the final adipogenic stimulus. The priming stimulus for assay 2 includes IBMX, dexamethasone and indomethacin, and then insulin as the final adipogenic stimulus.
Adipogenesis was quantified by Oil Red O staining. The peptide was tested at concentrations of 5 and 50 μg/ml over a period of three weeks. Cells were plated in 48-well culture plates, and the purity of the peptides was >95%. All data are presented as the fold change relative to the negative control (Ctr(−))±standard error. The KSEVSK 6-mer (SEQ ID NO: 7) was used as a positive control.

Experiment [2] relates to rat mesenchymal stem cells. Put plainly: Assay 1: adipogenesis, Oil Red O staining (transdifferentiation of fibroblast lineages into adipocytes). Type of experiment: cell-based. As to conditions: for adipogenic activity in Assay 1: Assay 1, Oil Red O, concentration not given; for adipogenesis quantified by Oil Red O staining, fold change relative to the negative control: three weeks. On the procedure: Reagents: (1) 3-isobutyl-1-methylxanthine (IBMX) solution: 0.5M in DMSO; (2) Insulin Solution: 10 mg/mL recombinant human insulin; (3) Dexamethasone Solution in 10 mM in ethanol; (4) Oil Red O (0.36% in 60% isopropanol).
Adipogenesis Initiation Media: mesenchymal stem cell expansion media/0.5 mM IBMX/1 μM dexamethasone. Mesenchymal stem cell expansion media is commercially available from Millipore. The IBMX Solution was diluted 1:1000 and the Dexamethasone Solution was diluted 1:10,000 in expansion media containing antibiotics and antimycotics. The prepared media was stored at 4° C.
Adipogenesis Progression Media for positive control: mesenchymal stem cell expansion media/10 μg/mL insulin. The Insulin Solution was diluted 1:1000 in the expansion media and stored at 4° C.
Experimental Adipogenesis Progression Media: mesenchymal stem cell expansion media/1-100 μg/mL RHAMM antagonist peptides.
Adipogenesis Maintenance Media: mesenchymal stem cell expansion media containing antibiotics and antimycotics.
Negative Control Media: Dulbecco's Modified Eagle's Medium (DMEM)/10% normal calf serum.
Pre-adipocyte stem cells including bone marrow mesenchymal stem cells and fibroblasts were propagated using standard tissue culture methods. Cells were trypsinized to remove the cells from the substratum. The trypsin was neutralized and cells were counted using a hemocytometer. Cells were resuspended at 20,000 cells/mL in expansion media. 1 mL of cell suspension was plated per well of 48-well plate, with several wells left empty for blank well (blank control) staining.
Cells were incubated until they reached confluency. When cells were fully confluent, the expansion media was replaced with 0.5 mL of Adipogenesis Initiation Media. For negative controls (no insulin, no peptides), expansion media only was used at this step and for subsequent media changes. For all media changes, media was replaced as gently as possible to avoid disturbing the monolayer.
Cells were incubated in Adipogenesis Initiation Media for 72 hours at 37° C., 5% CO2. 0.5 mL media was then removed from each well, and replaced with 0.5 mL of either positive control or experimental Adipogenesis Progression Media per well. Cells were again incubated for 96 hours at 37° C., 5% CO2, after which time media was replaced every 48 hours with Adipogenesis Maintenance Media (0.5 mL of media was removed from each well and replaced with 0.5 mL Adipogenesis Maintenance Media per well). Media added to empty wells served as blank controls for blank well background staining. Cells were incubated in Adipogenesis Maintenance Medium for at least 96 hours at 37° C., 5% CO2 after which time media was replaced with Adipogenesis Maintenance Medium. Lipid droplets had appeared by the time Adipogenesis Maintenance Medium was initially added and continued to accumulate and increase in size for 7-14 days. Experiments were terminated between seven and fourteen days after the initial addition of Adipogenesis Maintenance Medium.
For quantification of Oil Red O staining, media was removed and cells were washed twice with PBS, using care to gently add the PBS. Cells were then fixed in 4% paraformaldehyde (0.5 mL/well) and incubated for 30 minutes. The fixation solution was then removed and wells were washed two times with 1 mL of phosphate buffered saline (PBS) and once with 1 mL Milli-Q water. 0.25 mL Oil Red O solution was added per well of 48-well plate, including to the wells lacking cells, but containing media. Cells were incubated for 15 minutes at room temperature. The staining solution was then removed and wells were washed two times with 1 mL of Milli-Q water and once with washing solution (63% isopropanol in water).
Adipogenesis was quantified using a spectrophotometer. 0.25 mL Dye Extraction Solution (isopropyl alcohol) was added per well, and the plate was set on an orbital shaker or platform rocker for 30 minutes. […]

For a further experiment, the system named is adipogenesis. Put plainly: Adipogenic activity of peptides and peptide fragments, assay not specified. Type of experiment: cell-based. As to conditions: assay not specified. How it is done: In the second approach, a series of truncations and alanine mutagenesis on peptide B were performed in order to identify the smallest active sequence. Fragments of peptide B were prepared and assayed for adipogenesis. First, fragments corresponding to the two halves of peptide B were prepared (KLKDENS (SEQ ID NO: 8) and SQLKSEVSK (SEQ ID NO: 13)).

The next experiment concerns dermis of aged rats. Kind of experiment: Rat dermal skin model of adipogenesis (injection into the dermis of aged rats). It is filed as in vivo. As to conditions: injected into the dermis of aged rats / rat skin.
Experiment [3] deals with human primary cells directly isolated from human subcutaneous fat or dermal tissue. Put plainly: Human primary cells isolated from subcutaneous fat or dermal tissue. Type of experiment: cell-based.

Take “KTRAHHV (listed as Paenibacillus polymyxa)”: the “adipogenic activity in Assay 2” value in experiment [1] was “ablated adipogenic activity”. The “adipogenic activity in Assay 1” value in experiment [2] is “ablated adipogenic activity”.
With KLKDENSQLK (listed as Homo sapiens), the “adipogenic activity in Assay 2” value in experiment [1] is on record as “exhibited activity”. In addition, the “adipogenesis quantified by Oil Red O staining, fold change relative to the negative control” value in experiment [1] (Assay 2, peptide 5 μg/ml) is “significant increase in adipogenesis”; in experiment [1] (Assay 2, peptide 50 μg/ml), “significant increase in adipogenesis”; in experiment [2] (Assay 1, peptide 5 μg/ml), “significant increase in adipogenesis”; in experiment [2] (Assay 1, peptide 50 μg/ml) it was “significant increase in adipogenesis”. Besides, the adipogenic activity entry in the experiment with adipogenesis was “has adipogenic activity; also recorded: are adipogenic”. In experiment [2], the “adipogenic activity in Assay 1” value was “exhibited activity”.
Take “KSEVSK (listed as Homo sapiens) [reference compound]”: in the experiment on dermis of aged rats, the “adipogenic effects in rat skin” value is given as “induce large fat pads”. Also, the “specific activity among the 9-mer, 7-mer and 6-mer fragments” value in experiment [1] (Assay 2) and in experiment [2] (Assay 1) was “highest specific activity” throughout. The “adipogenic activity in Assay 2” value in experiment [1] is “exhibit adipogenic activity”. The adipogenic activity result in the experiment with adipogenesis is recorded as “also found to be adipogenic”. In addition, the “adipogenic activity in human primary cells” value in experiment [3] is given as “exhibited adipogenic activity”. Moreover, in experiment [2], the “adipogenic activity in Assay 1” value is recorded as “exhibit adipogenic activity”.
Take “KLKDENSQLR (listed as Erinaceus europaeus)”: in experiment [1], the “adipogenic activity in Assay 2” value is reported as “promising results”. Moreover, in experiment [2], the “adipogenic activity in Assay 1” value is “promising results”.
